# Reference: patent US20060122264A1, “Stem cell invasion inhibitor” (Yasumi Uchida, etal, priority 2003, published 2006)
# “Also recorded” adds a separate entry of the source. Like-named read-outs stand apart in the source and are kept apart here. Marks after values point to notes of the source that are not given here.
# Columns and labels:
# [1] = test system: human coronary artery smooth muscle cells; conditions: International Publication WO 01/93871; cited from earlier work
# [2] = International Publication WO 01/93871; cited from earlier work
# [3] = test system: Human umbilical vein endothelial cells (HUBEC); experiment: Proliferation of human vascular endothelial cells; format: cell-based; conditions: for number of cells after culturing for three days: Endothelial cells
# Method: (§1) Human umbilical vein endothelial cells (HUBEC) (1×10^5/cm^2) were inoculated into a medium containing MCDB-104, 10% FBS, ECGF (100 ng/mL), EGF (10 ng/mL), and heparin (100 ng/mL), and phenolsulfonphthalein or bromosulfophthalein was added to the medium, followed by culturing for three days. Thereafter, the resultant cells were counted, and the number of the cells was compared with that in the case where no drug was added to the medium. In a manner similar to that described above, human coronary artery smooth muscle cells (1×10^5/cm^2) were cultured in a medium containing MCDB-104, 10% FBS, and EGF (10 ng/mL) for three days, and the resultant cells were counted.
# [4] = test system: human coronary artery smooth muscle cells; experiment: Proliferation of human coronary artery smooth muscle cells; format: cell-based; conditions: for number of cells after culturing for three days: Smooth muscle cells
# Method: as §1
# [5] = test system: dendritic cells in the coronary artery wall; experiment: Prevention of cell invasion associated with coronary angioplasty, local administration: dendritic cell count (CD40 immunostaining); format: in vivo, beagle dogs; conditions: for Number of dendritic cells (250 × 250 μm^2): 5% drug 0.5 mL injected locally after balloon dilation
# Text: (§2) Nembutal-anesthetized beagle dogs were employed for the test. Each of the animals was endotracheally intubated, and ventilated with air. Subsequently, an 8-French sheath was inserted into the right common carotid artery. An 8-French guide catheter was inserted through the sheath, followed by coronary angiography. Subsequently, a clinically employed balloon catheter for coronary angioplasty (outer diameter: 3 mm, length: 20 mm) was inserted, and then the balloon was expanded at 9 atm, to thereby dilate a distal to intermediate portion of the anterior descending branch of the coronary artery. Through this procedure, the blood vessel wall was damaged. Subsequently, the aforementioned perforated balloon catheter equipped with an injection syringe containing 5% phenolsulfonphthalein (0.5 mL) or 5% bromosulfophthalein (0.5 mL) was guided by a guide wire and inserted into the above-dilated portion, and the phthalein compound (drug) was injected into the blood vessel wall at 3 atm. After completion of injection of the drug, the catheter was removed, and then the cervical portion through which the catheter had been inserted was sutured, followed by administration of an antibiotic. After recovery from anesthesia, the animal was cared for one week to one month, and was again subjected to coronary angiography. One week to one month later, the animal was anesthetized to stop cardiac beat and, the heart was removed from the animal, and then subjected to formalin fixation, followed by preparation of a microscopic sample of the above-dilated portion. Subsequently, the thus-prepared sample was subjected to azan staining and various immunostainings.
# (§3) In connection with this finding, in the above-immunostained sample, stem cells per unit area (250×250 um^2) were counted at the highest-cell-density site of the intima, media, or adventitia. Comparison (in terms of the number of stem cells) was performed between drug administration groups and a non-administration group (control group) in which merely saline (0.5 mL) was injected into a portion of the coronary artery dilated with a balloon, and P<0.05 (by Student t test) was regarded as a significant difference.
# Dendritic cells, which are inflammatory cells, were subjected to immunostaining with a CD40 antibody.
# [6] = test system: β-actin-positive vascular stem cells in coronary artery; experiment: Insertion of drug-eluting stent into coronary artery: stem cell density; format: in vivo, beagle dogs; conditions: two-layer-coated drug-eluting stent (inner PLGA 7510, outer PLA 0010), one month
# Text: (§4) Nembutal-anesthetized beagle dogs were employed for the test. While each of the animals was ventilated with air, an 8-French guide catheter was inserted through the right common carotid artery, followed by left coronary angiography. Subsequently, a drug-eluting stent (inner layer: PLGA 7510 containing 50% phenolsulfonphthalein, outer layer: PLA 0010 containing 50% phenolsulfonphthalein) was inserted into the left circumflex branch, and then expanded at 9 atm, followed by placement of the stent. After recovery from anesthesia, the animal was bred for one month, and then was again subjected to coronary angiography. The degree of stenosis was measured at the most stenotic site of the stent-inserted portion, and the thus-measured stenosis degree was compared with that in the case of a non-eluting stent group (i.e., a group in which a stent that is not coated with a drug was inserted). Subsequently, the heart was extirpated from the animal, and then subjected to formalin fixation. Thereafter, a microscopic sample of the stent-inserted portion was prepared, followed by staining of vascular smooth muscle β-actin. Stem cells per unit area were counted at the highest-cell-density site of the intima, media, or adventitia of the above-stained sample. Comparison (in terms of stem cell density) was performed between the drug-eluting stent group and the non-eluting stent group (i.e., the group in which a stent that is not coated with a drug was inserted).
# [7] = test system: coronary artery stenosis; experiment: Coronary artery stenosis after balloon angioplasty, local administration (coronary angiography, azan staining); format: in vivo, beagle dogs
# Text: as §2
# [8] = test system: stenosis at the talc-administered site; experiment: Inflammatory stenosis caused by talc at the coronary artery adventitia: degree of stenosis; format: in vivo, beagle dogs
# Method: (§5) Anesthetized beagle dogs were employed for the test. While each of the animals was ventilated with air, thoracotomy was performed at the left fifth intercostal space, to thereby expose the heart. Subsequently, talc powder was administered to the vicinity of the adventitia at an intermediate portion of the anterior descending branch of the left coronary artery, which caused inflammation. Subsequently, the thoracotomy site was closed, and phenolsulfonphthalein was injected under conditions similar to those of the test described above in (A) by use of a perforated balloon equipped with an injection syringe containing the drug. After recovery from anesthesia, the animal was bred for one month, and then subjected to coronary angiography. Thereafter, the heart was extirpated from the animal, and then subjected to formalin fixation. A microscopic sample of the talc-administered portion was prepared, and the sample was subjected to β-actin staining, followed by determination of the density of β-actin-positive cells (i.e., stem cells).
# [9] = test system: β-actin-positive stem cells at the talc-administered site; experiment: Inflammatory stenosis caused by talc at the coronary artery adventitia: stem cell density; format: in vivo, beagle dogs; conditions: for Number of stem cells (250 × 250 μm^2): one month
# Method: as §5
# [10] = test system: thrombus in the right common carotid artery; experiment: Arterial thrombosis, carotid intima damaged by Dotter balloon catheter; format: in vivo, dogs; conditions: 10 mg/kg intravenously
# Method: Anesthetized dogs were employed for the test. Phenolsulfonphthalein or bromosulfophthalein (10 mg/kg, which is 100 times the amount clinically used for renal function testing) was intravenously administered to each of the animals, and the intima of the right common carotid artery was damaged by means of a Dotter balloon catheter. Thirty minutes later, the common carotid artery was extirpated, and the wet weight of thrombus present in the carotid artery was measured. The thus-measured wet weight was compared with that in the case of the control group.
# [11] = test system: coronary artery stenosis; experiment: Insertion of drug-eluting stent into coronary artery: degree of stenosis; format: in vivo, beagle dogs; conditions: one month, most stenotic site of stent-inserted portion
# Text: as §4, with “Comparison (in terms of stem cell density) was performed between the drug-eluting stent group and the non-eluting stent group (i.e., the group in which a stent that is not coated with a drug was inserted).” left out
# [12] = test system: β-actin-positive stem cells in the coronary artery wall; experiment: Prevention of stem cell invasion associated with coronary angioplasty, local administration by pored balloon catheter: stem cell count; format: in vivo, beagle dogs
# Text: as §2, §3
smiles,measurement,setting,value
Cc1cc(-c2ccc(/N=N/c3ccc4c(S(=O)(=O)O)cc(S(=O)(=O)O)c(N)c4c3O)c(C)c2)ccc1/N=N/c1ccc2c(S(=O)(=O)O)cc(S(=O)(=O)O)c(N)c2c1O [Evans Blue],effect of inhibiting proliferation of vascular smooth muscle cells,[1],has the effect of inhibiting proliferation of vascular smooth muscle cells
same,antithrombotic effect,[2],antithrombotic effect
same,number of cells after culturing for three days,[3]; Concentration (mol) 10^−4,0.12**
same,number of cells after culturing for three days,[3]; Concentration (mol) 10^−5,0.98*
same,number of cells after culturing for three days,[3]; Concentration (mol) 10^−6,1.54*
same,number of cells after culturing for three days,[3]; Concentration (mol) 10^−7,3.11*
same,number of cells after culturing for three days,[3]; Concentration (mol) 10^−8,3.50
same,number of cells after culturing for three days,[4]; Concentration (mol) 10^−4,0.07***
same,number of cells after culturing for three days,[4]; Concentration (mol) 10^−5,0.34**
same,number of cells after culturing for three days,[4]; Concentration (mol) 10^−6,1.00*
same,number of cells after culturing for three days,[4]; Concentration (mol) 10^−7,3.50*
same,number of cells after culturing for three days,[4]; Concentration (mol) 10^−8,3.89
"O=S1(=O)OC(c2ccc(O)cc2)(c2ccc(O)cc2)c2ccccc21 [Phenolsulfonphthalein, phenolsulfonphthalein]",Number of dendritic cells (250 × 250 μm^2),[5]; Adventitia,1.0 ± 0.5* 250 × 250 μm^2
same,invasion of dendritic cells,[5]; CD40 antibody immunostaining,inhibited
same,Number of dendritic cells (250 × 250 μm^2),[5]; Intima,0.2 ± 0.0* 250 × 250 μm^2
same,Number of dendritic cells (250 × 250 μm^2),[5]; Media,0.0 ± 0.0* 250 × 250 μm^2
same,Number of stem cells (250 × 250 μm^2),[6]; Adventitia,16.0 ± 7.1* 250 × 250 μm^2
same,Number of stem cells (250 × 250 μm^2),[6]; Intima,7.1 ± 3.2** 250 × 250 μm^2
same,Number of stem cells (250 × 250 μm^2),[6]; Media,9.0 ± 4.0* 250 × 250 μm^2
same,stenosis as determined through coronary angiography,[7]; compared with non-administration group,significantly inhibited
same,Stenosis degree (%),"[7]; coronary angiography, 5% drug 0.5 mL injected locally after balloon dilation",10.1 ± 2.5 %
same,stenosis due to intimal hyperplasia (FIG. 2),"[7]; four weeks after dilation, azan staining",only slight intimal hyperplasia; also recorded: only slightly observed
same,degree of stenosis,[8],significantly lower
same,Stenosis degree (%),"[8]; one month, coronary angiography",10.4 ± 2.7 %
same,β-actin-positive cell density compared with the non-administration group,[9],significantly lower
same,Number of stem cells (250 × 250 μm^2),[9]; Adventitia,12.2 ± 3.4* 250 × 250 μm^2
same,Number of stem cells (250 × 250 μm^2),[9]; Intima,2.0 ± 0.8* 250 × 250 μm^2
same,Number of stem cells (250 × 250 μm^2),[9]; Media,2.6 ± 0.7* 250 × 250 μm^2
same,effect of inhibiting proliferation of human vascular endothelial cells (HUBEC),[3],no effect
same,number of cells after culturing for three days,[3]; Concentration (mol) 10^−4,3.37
same,number of cells after culturing for three days,[3]; Concentration (mol) 10^−5,3.40
same,number of cells after culturing for three days,[3]; Concentration (mol) 10^−6,3.35
same,number of cells after culturing for three days,[3]; Concentration (mol) 10^−7,3.43
same,number of cells after culturing for three days,[3]; Concentration (mol) 10^−8,3.47
same,effect of inhibiting thrombus formation (antithrombotic effect),[10],no effect; also recorded: nor antithrombotic effect
same,Average thrombus weight,[10]; wet weight thirty minutes after intima damage,195 mg
same,effect of inhibiting proliferation of vascular smooth muscle cells,[4],no effect
same,number of cells after culturing for three days,[4]; Concentration (mol) 10^−4,3.65
same,number of cells after culturing for three days,[4]; Concentration (mol) 10^−5,3.88
same,number of cells after culturing for three days,[4]; Concentration (mol) 10^−6,4.17
same,number of cells after culturing for three days,[4]; Concentration (mol) 10^−7,4.02
same,number of cells after culturing for three days,[4]; Concentration (mol) 10^−8,4.08
same,Stenosis degree (%),[11],0 ± 0.0 %
same,Number of stem cells,"[12]; Adventitia, 5% drug 0.5 mL injected locally after balloon dilation",19.3 ± 6.3* 250×250 um^2
same,Number of stem cells,"[12]; Intima, 5% drug 0.5 mL injected locally into vessel wall after balloon dilation, per unit area at highest-cell-density site",11.0 ± 4.2* 250×250 um^2
same,Number of stem cells,"[12]; Media, 5% drug 0.5 mL injected locally after balloon dilation",10.1 ± 2.8* 250×250 um^2
same,stem cell density compared with the non-administration group,[12]; at all the membranes,significantly lower
same,cell invasion (FIG. 2),[12]; four weeks after dilation,less observed
same,cell invasion from the adventitia into the intima (FIG. 1),"[12]; one week after dilation with a balloon, azan staining",virtually no cell invasion is observed; also recorded: not observed
